Reference: patent US20040025201A1, “True breeding transgenics from plants heterozygous for transgene insertions” (New Zealand Institute for Crop & Food Research Lim, priority 1995, published 2004)

What was measured:
Type in all cases: in vivo
[1] = system: Transgenic potato plants (Solanum tuberosum cv. Iwa), line SCI1; assay: Experiment 4: segregation of GUS activity in selfed progeny of sprayed transgenic potato; settings: sprayed once three weeks after planting, 20 g/ha
Description: The Solanum tuberosum, subspecies tuberosum, plant line used: SCI1 (Conner et al., Journal of Cellular Biochemistry 13D: 333 (1989)). This line of potato is transformed with the T-DNA from pKIWI100 and expresses transgenes conferring kanamycin resistance, β-glucuronidase (GUS) activity, and chlorsulfuron resistance. The cultivated varieties of potato grown in the United States and Europe are predominantly tetraploid (i.e., four complete sets of chromosomes) (Plaisted, R. L., Potato, Chapter 34:483-494, In Hybridization of Crop Plants, supra; Allard, pg. 6, supra.
Plants of the original transgenic line were vegetatively propagated via tubers which were planted in a containment greenhouse. Soon after sprouting (three weeks after planting) the plants were sprayed once with either water of chlorsulfuron at the equivalent rate of 20 g/ha Plants were self pollinated at flowering and berries harvested 15 weeks after spraying. Seeds were extracted and germinated, and the progeny histochemically screened for GUS activity.

[2] = system: Brassica napus plants heterozygous for the chlorsulfuron-resistant mutation (wt×30b); assay: Experiment 5 part (d): back-crossed progeny ((wt×30b)×30b) of sprayed female parent; settings: heterozygous female parent sprayed just prior to bolting
Protocol: (§1) The heterozygous plants were allowed to self pollinate and resulting seeds harvested at maturity. This next generation was screened for chlorsulfuron resistance as previously described (Conner et al. (1994). Briefly, this involved surface sterilizing the seeds (10-12 minutes in 1% sodium hypochlorite, plus a drop of Tween 20), followed by 2-3 rinses in sterile water, then sowing the seeds in vitro onto the surface of a medium consisting of half strength MS salts at pH 5.8 (Murashige and Skoog Physiologia Plantarum 15:473-497 (1962)) supplemented with 10 ug/liter chlorsulfuron and 6.5 g/liter agar. Seeds were then germinated at 24-26° C. under cool white fluorescent lights (80-100) umol/m2/sec; 16 h light: 8 h darkness daily).
(§2) Seeds generally germinated after 3-4 days and were scored for chlorsulfuron resistance 5-7 days after sowing. Resistant seedlings had long healthy roots (4-6 cm) that penetrated into the gelled medium, with healthy green cotyledons.
(§3) To further explore the underlying reasons accounting for the induced skewed segregation, additional crosses using the 30b mutant were performed. At specified times the plants were sprayed with chlorsulfuron and the progeny evaluated as described in Experiment 1 above.
Part (d). Plants heterozygous for the chlorsulfuron-resistant mutation (wt×30b) were either not sprayed, or sprayed with chlorsulfuron just prior to bolting. […]

[3] = system: Brassica napus plants heterozygous for the chlorsulfuron-resistant mutation (wt×30b); assay: Experiment 5 part (a): self-pollinated seed of heterozygous plants sprayed at varying times
Protocol: as §1, §2, §3
Part (a). Plants heterozygous for the chlorsulfuron-resistant mutation (wt×30b) were either not sprayed, or sprayed with chlorsulfuron at varying times during development. The self-pollinated seed was harvested, and the germinated seedlings were screened for chlorsulfuron resistance.

[4] = system: Brassica napus plants heterozygous for the chlorsulfuron-resistant mutation (wt×30b); assay: Experiment 5 part (b): back-crossed progeny ((wt×30b)×wt) of sprayed ovule parent
Protocol: as §1, §2, §3
Part (b). Plants heterozygous for the chlorsulfuron-resistant mutation (wt×30b) were either not sprayed, or sprayed with chlorsulfuron at varying times during development. The back crossed-progeny ((wt×30b)×wt), resulting from pollen from non-sprayed wildtype plants were screened for chlorsulfuron resistance as described in Experiment 1.

[5] = system: Brassica napus plants heterozygous for the chlorsulfuron-resistant mutation (wt×30b); assay: Experiment 5 part (c): back-crossed progeny (wt×(wt×30b)) of sprayed pollen parent; settings: pollen parent sprayed just prior to bolting
Protocol: as §1, §2, §3
Part (c). Plants heterozygous for the chlorsulfuron-resistant mutation (wt×30b) were either not sprayed, or sprayed with chlorsulfuron just prior to bolting. The pollen from these plants was back-crossed to non-sprayed wildtype plants, and the resulting progeny (wt×(wt×30b)) were screened for chlorsulfuron resistance as described in Experiment 1.

[6] = system: Brassica napus (30b) mutant; assay: Experiment 1: segregation of chlorsulfuron resistance in selfed progeny of sprayed heterozygous plants
Description: A homozygous line of a Brassica napus (30b) mutant, with a single gene conferring sulfonylurea resistance (Conner et al., Proceedings of the 47th New Zealand Plant Protection Conference, 173-177 (1994)), was used in this study. Brassica napus are self-fertile, with about 80% of the seed normally arising from self-pollination, although a greater degree of cross-pollination may occur when insect pollinators are abundant (Downey et al., Rapeseed and Mustard, Chapter 35:495-509, In Hybridization of Crop Plants, supra). B. napus is commonly referred to as canola, rape and oilseed rape.
The 30b mutant line was hybridized to a herbicide-sensitive genotype to generate a seed population heterozygous for sulfonylurea resistance. These heterozygous seeds were sown, repotted into individual pots in a greenhouse, and individuals were randomly divided into 3 populations:
(ii) plants sprayed once with chlorsulfuron (a sulfonylurea herbicide) at a rate of 3 mg/liter until runoff, just as the plants were beginning to bolt (development of flowering stems) (19 plants).
(iii) plants sprayed with chlorsulfuron at a rate of 3 mg./liter until runoff, just as the plants were beginning to bolt, and then every 2 weeks until initiation of plant senescence (18 plants).
as §1, §2

[7] = system: Transgenic forage brassica plants (Brassica napus cv. Giant), line G/HR10; assay: Experiment 3: segregation of GUS activity in selfed progeny of sprayed transgenic forage brassica; settings: sprayed once prior to bolting, 20 g/ha
Description: Plant line used: G/HR10 (Christey and Sinclair, Plant Science: 87 161-169 (1992)). This line contains a single insertion of the T-DNA from pKIWI110 and expresses transgenes conferring kanamycin resistance, β-glucuronidase (GUS) activity, and chlorsulfuron resistance.
Plants of the original transgenic line were cloned in vitro, then transferred to a containment greenhouse. […] The plants were allowed to self-pollinate and the seeds were harvested five months after spraying. The progeny germinated and histochemically screened for GUS activity.

[8] = system: Brassica napus mutant (19c); assay: Experiment 2: segregation of chlorsulfuron resistance in selfed progeny of sprayed heterozygous plants
Protocol: as §1, §2
A further chlorsulfuron-resistant Brassica napus mutant (19c), of independent origin to mutant 30b (Conner et al., Proceedings of the 47th New Zealand Plant Protection Conference, 173-177 (1994)) was subjected to identical experiments described above for mutant 30b.

[9] = sprayed 2 weeks after pods full size
[10] = sprayed at pods reaching full size
[11] = sprayed at seedlings (2-3 leaves)
[12] = total of 18 plants repeatedly sprayed
[13] = total of 19 plants sprayed once

In the case of `COc1nc(C)nc(NC(=O)NS(=O)(=O)c2ccccc2Cl)n1` [chlorsulfuron], the GUS-negative progeny [1] is reported as 12, the GUS-positive progeny [1] is reported as 136 and the Number herbicide-sensitive seedlings [2] is reported as 0. The “Number of herbicide-resistant seedlings” value [2] was 111, the “Number of herbicide-resistant seedlings” value [3, 9] was 184 and the “Number of herbicide-sensitive seedlings” value [3, 9] was 26. For the same molecule, the “Number of seeds per pod” value [3, 9] was 6.2, the “Number of herbicide-resistant seedlings” value [3, 10] was 160 and the “Number of herbicide-sensitive seedlings” value [3, 10] was 16. The “Number of seeds per pod” value [3, 10] was 5.8, the “Number of herbicide-resistant seedlings” value [3, 11] was 440 and the “Number of herbicide-sensitive seedlings” value [3, 11] was 11. For the same molecule, the “Number of seeds per pod” value [3, 11] was 5.6, the “Number of herbicide-resistant seedlings” value ([3]; sprayed just prior to bolting) was 565 and the “Number of herbicide-sensitive seedlings” value ([3]; sprayed just prior to bolting) was 5. The “Number of seeds per pod” value ([3]; sprayed just prior to bolting) was 5.4, the “Number of herbicide-resistant seedlings” value [4, 9] was 104 and the “Number of herbicide-sensitive seedlings” value [4, 9] was 37. For the same molecule, the “Number of seeds per pod” value [4, 9] was 4.3, the “Number of herbicide-resistant seedlings” value [4, 10] was 127 and the “Number of herbicide-sensitive seedlings” value [4, 10] was 28. For the same molecule, the “Number of seeds per pod” value [4, 10] was 4.0, the “Number of herbicide-resistant seedlings” value ([4]; sprayed just prior to bolting) was 134 and the “Number of herbicide-sensitive seedlings” value ([4]; sprayed just prior to bolting) was 5. For the same molecule, the “Number of seeds per pod” value ([4]; sprayed just prior to bolting) was 3.4, the “Number of herbicide-resistant seedlings” value [5] was 381 and the “Number of herbicide-sensitive seedlings” value [5] was 112. The “Number of seeds per pod” value [5] was 6.3, the “Resistance of progeny of sprayed heterozygous plants (in words)” value ([6]; both spray regimes) was “virtually all the progeny obtained were resistant to chlorsulfuron” and the “Number of herbicide-resistant progeny, Total” value [6, 12] was 728. The “Number of herbicide-sensitive progeny, Total” value [6, 12] was 2, the “Number of herbicide-resistant progeny, Total” value [6, 13] was 1588 and the “Number of herbicide-sensitive progeny, Total” value [6, 13] was 17. It also gave a GUS-negative progeny ([7]; Population A) of 13, a GUS-positive progeny ([7]; Population A) of 78 and a GUS-negative progeny ([7]; Population B) of 16. For the same molecule, the GUS-positive progeny ([7]; Population B) was 96, the “Number of herbicide-resistant seedlings” value ([8]; repeated fortnightly sprays from bolting) was 96 and the “Number of herbicide-resistant seedlings” value ([8]; sprayed just prior to bolting) was 398. The “Number of herbicide-sensitive seedlings” value ([8]; sprayed just prior to bolting) was 31.
